Data: the supplement of paper PMC10307832

How the values were obtained:
Experiment in all cases: relative viability (nuclei count vs DMSO), 5 days (fraction); higher = more cells survive
Axitinib + Alpelisib = compound: CNC(=O)c1ccccc1Sc1ccc2c(/C=C/c3ccccn3)n[nH]c2c1 [Axitinib] + Cc1nc(NC(=O)N2CCC[C@H]2C(N)=O)sc1-c1ccnc(C(C)(C)C(F)(F)F)c1 [Alpelisib] (partner 2 µM)
Procedure, shortened: (§1)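 Lung cancer cell lines were pin-tool dosed in 1536-well plates on the day after seeding, with either a lone drug or a fixed anchor-drug dose plus five library-drug doses (not always all listed) in √10 steps. Nuclei were counted on 4× images after 5 days. Relative viability is the ratio of treated-well to vehicle-well nuclei counts, with each value a median of duplicate plates.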

[1] = compound: CC1=CC=C(C=C1)C(=O)CN2C3=C(CCCC3)SC2=N [Pifithrin_alpha] + C[C@]1(O)C[C@@H](c2nc(-c3ccc4ccc(-c5ccccc5)nc4c3)c3c(N)nccn32)C1 [Linsitinib] (partner 1 µM)
Procedure, shortened: as §1

[2] = compound: CC1=CC=C(C=C1)C(=O)CN2C3=C(CCCC3)SC2=N [Pifithrin_alpha] + O=C(c1cc(Cc2n[nH]c(=O)c3ccccc23)ccc1F)N1CCN(C(=O)C2CC2)CC1 [Olaparib] (partner 8 µM)
Procedure, shortened: as §1

Axitinib + Dasatinib = compound: CNC(=O)c1ccccc1Sc1ccc2c(/C=C/c3ccccn3)n[nH]c2c1 [Axitinib] + Cc1nc(Nc2ncc(C(=O)Nc3c(C)cccc3Cl)s2)cc(N2CCN(CCO)CC2)n1 [Dasatinib] (partner 0.075 µM)
Procedure, shortened: as §1

| Cell Line | relative viability (Axitinib + Alpelisib; first compound 0.005 µM) | relative viability (Axitinib + Alpelisib; first compound 0.01581 µM) | relative viability (Axitinib + Alpelisib; first compound 0.05 µM) | relative viability (Axitinib + Alpelisib; first compound 0.1581 µM) | relative viability (Axitinib + Alpelisib; first compound 0.5 µM) | relative viability ([1]; first compound 1 µM) | relative viability ([1]; first compound 3.162 µM) | relative viability ([1]; first compound 10 µM) | relative viability ([1]; first compound 31.62 µM) | relative viability ([1]; first compound 100 µM) | relative viability ([2]; first compound 1 µM) | relative viability ([2]; first compound 3.162 µM) | relative viability ([2]; first compound 10 µM) | relative viability ([2]; first compound 31.62 µM) | relative viability ([2]; first compound 100 µM) | relative viability (Axitinib + Dasatinib; first compound 0.005 µM) | relative viability (Axitinib + Dasatinib; first compound 0.01581 µM) | relative viability (Axitinib + Dasatinib; first compound 0.05 µM) | relative viability (Axitinib + Dasatinib; first compound 0.1581 µM) | relative viability (Axitinib + Dasatinib; first compound 0.5 µM) |
| --- | --- | --- | --- | --- | --- | --- | --- | --- | --- | --- | --- | --- | --- | --- | --- | --- | --- | --- | --- | --- |
| CAL-12T | 1.35 | 1.38 | 1.01 | 1.26 | 1.32 | 0.877 | 0.702 | 0.819 | 0.718 | 0.702 | 0.706 | 0.631 | 0.535 | 0.46 | 0.574 | 0.603 | 0.448 | 0.367 | 0.38 | 0.405 |
| A-427 | 1.05 | 1.1 | 1.08 | 1.05 | 1.09 | 1.07 | 1.06 | 1.1 | 0.924 | 1.11 | 0.676 | 0.623 | 0.574 | 0.339 | 0.493 | 0.69 | 0.644 | 0.807 | 0.697 | 0.769 |
| NCI-H2009 | 1.21 | 1.2 | 1.13 | 1.2 | 1.29 | 1.25 | 1.25 | 1.16 | 0.822 | 0.998 | 0.701 | 0.903 | 0.594 | 0.286 | 0.614 | 0.303 | 0.35 | 0.355 | 0.301 | 0.413 |
| UMC-11 | 1.08 | 0.871 | 0.959 | 1.03 | 1.16 | 1.16 | 1.01 | 1.1 | 0.913 | 1.49 | 0.367 | 0.365 | 1.09 | 0.402 | 0.249 | 0.447 | 0.442 | 0.448 | 0.444 | 0.54 |
| NCI-H596 | 0.503 | 0.624 | 0.531 | 0.599 | 0.553 | 1.04 | 1.2 | 1.21 | 1.11 | 1.16 | 0.634 | 0.589 | 0.679 | 0.492 | 0.513 | 0.519 | 0.477 | 0.653 | 0.569 | 0.507 |
| LOU-NH91 | 0.772 | 0.512 | 0.715 | 0.702 | 0.778 | 0.789 | 0.849 | 0.828 | 0.753 | 0.846 | 0.821 | 0.908 | 0.864 | 0.523 | 0.795 | 0.569 | 0.434 | 0.61 | 0.558 | 0.568 |
| HOP-62 | 1.07 | 1.22 | 0.78 | 0.998 | 1.2 | 1.01 | 0.979 | 1.18 | 0.781 | 1.07 | 0.524 | 0.635 | 0.446 | 0.127 | 0.65 | 0.693 | 0.704 | 0.77 | 0.684 | 0.726 |
| NCI-H1993 | 0.664 | 0.643 | 0.655 | 0.784 | 0.693 | – | 0.669 | 0.741 | 0.684 | 0.714 | 1.06 | 1.11 | 0.779 | 0.697 | 0.866 | 0.609 | 0.708 | 0.735 | 0.712 | 0.52 |
